Data taken from the supplement of paper PMC10307832.

Key:
Assay in all cases: relative viability (nuclei count vs DMSO), 5 days (fraction); higher = more cells survive
Dabrafenib + Palbociclib = compound: CC(C)(C)c1nc(-c2cccc(NS(=O)(=O)c3c(F)cccc3F)c2F)c(-c2ccnc(N)n2)s1 [Dabrafenib] + CC(=O)c1c(C)c2cnc(Nc3ccc(N4CCNCC4)cn3)nc2n(C2CCCC2)c1=O [Palbociclib] (partner 0.5 µM)
Outline: (§1)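 For relative viability, nuclei counts in treated wells were divided by those in vehicle wells. Lung cancer cell lines had been pin-tool dosed in 1536-well plates the day after seeding and cultured for 5 days, then fixed and stained in one step (final 0.05% Triton X-100, 1% formaldehyde, 1 ug/ml Hoechst) and imaged at 4×. Doses were one drug alone or a fixed anchor-drug dose plus five library-drug doses (not always all listed) in √10 steps, and values are duplicate-plate medians.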

VX-702 + Crizotinib = compound: NC(=O)c1ccc(N(C(N)=O)c2c(F)cccc2F)nc1-c1ccc(F)cc1F [VX-702] + C[C@@H](Oc1cc(-c2cnn(C3CCNCC3)c2)cnc1N)c1c(Cl)ccc(F)c1Cl [Crizotinib] (partner 1 µM)
Outline: as §1

VX-702 + Decitabine = compound: NC(=O)c1ccc(N(C(N)=O)c2c(F)cccc2F)nc1-c1ccc(F)cc1F [VX-702] + Nc1ncn([C@H]2C[C@H](O)[C@@H](CO)O2)c(=O)n1 [Decitabine] (partner 2 µM)
Outline: as §1

Dabrafenib + AZD7762 = compound: CC(C)(C)c1nc(-c2cccc(NS(=O)(=O)c3c(F)cccc3F)c2F)c(-c2ccnc(N)n2)s1 [Dabrafenib] + NC(=O)Nc1cc(-c2cccc(F)c2)sc1C(=O)N[C@H]1CCCNC1 [AZD7762] (partner 0.2 µM)
Outline: as §1

Cell Line	relative viability (Dabrafenib + Palbociclib; first compound 0.003 µM)	relative viability (Dabrafenib + Palbociclib; first compound 0.009487 µM)	relative viability (Dabrafenib + Palbociclib; first compound 0.03 µM)	relative viability (Dabrafenib + Palbociclib; first compound 0.09487 µM)	relative viability (Dabrafenib + Palbociclib; first compound 0.3 µM)	relative viability (VX-702 + Crizotinib; first compound 0.02 µM)	relative viability (VX-702 + Crizotinib; first compound 0.2 µM)	relative viability (VX-702 + Crizotinib; first compound 0.6325 µM)	relative viability (VX-702 + Crizotinib; first compound 2 µM)	relative viability (VX-702 + Decitabine; first compound 0.02 µM)	relative viability (VX-702 + Decitabine; first compound 0.2 µM)	relative viability (VX-702 + Decitabine; first compound 0.6325 µM)	relative viability (VX-702 + Decitabine; first compound 2 µM)	relative viability (Dabrafenib + AZD7762; first compound 0.003 µM)	relative viability (Dabrafenib + AZD7762; first compound 0.009487 µM)	relative viability (Dabrafenib + AZD7762; first compound 0.03 µM)	relative viability (Dabrafenib + AZD7762; first compound 0.09487 µM)	relative viability (Dabrafenib + AZD7762; first compound 0.3 µM)
HOP-62	0.466	0.423	0.433	0.471	0.498	0.946	0.651	0.549	0.915	0.209	0.166	0.206	0.196	0.088	0.449	0.493	0.424	0.452
LC-2-ad	0.52	0.511	0.495	0.476	0.478	0.502		0.449	0.504	0.849	0.807	0.821	0.776	0.654	0.945	0.87	0.92	1.07
LCLC-97TM1		0.206	0.266	0.184	0.198	0.285	0.342	0.421	0.558	0.241	0.232	0.232	0.228		0.239	0.25	0.129	0.224
LCLC-103H	0.467	0.495	0.432	0.455	0.514	1.04	0.973	1.13	1.07	0.733	0.735	0.685	0.746	0.703	0.834	0.701	0.794	0.761
LK-2	0.687	0.377		0.555	0.84	0.258		0.223	0.23	0.26	0.329	0.218	0.318	0.125	0.449		0.433	0.467
LOU-NH91		0.558	0.589	0.533	0.543	0.711	0.741	0.786	0.659	0.837	0.832	0.815	0.766		0.768	0.734	0.725	0.827
LU99A	0.477	0.387	0.388	0.39	0.393	0.61	0.467	0.475	0.437	0.93	0.869	0.93	0.872	0.55	0.401	0.368	0.352	0.261
LXF-289	0.59	0.594	0.673	0.62	0.616	0.924	0.802	0.874	0.864	0.313	0.403	0.381	0.357	0.162	1.13	1.22	1.06	1.29
